By IC50 is commonly meant the midpoint of a concentration-inhibition curve. Low readings indicate inhibition by little substance, high ones a need for much substance.

SMILES strings stand for the structures. Active and inactive are the calls of the source. No cut-off for these calls is given here.

One assay has as its system HEL. Put plainly: Antiproliferative activity against HEL cells. Conditions: Homo sapiens.
A further assay has as its system K562. The assay is described as follows: Antiproliferative activity against human K562 cells.
For the next assay, the system named is THP-1. Put plainly: Antiproliferative activity against human THP-1 cells.
The target in assay [1] is T1, Signal transducer and activator of transcription 1-alpha/beta (Homo sapiens) (UniProt P42224).
T1 sequence (whole entry): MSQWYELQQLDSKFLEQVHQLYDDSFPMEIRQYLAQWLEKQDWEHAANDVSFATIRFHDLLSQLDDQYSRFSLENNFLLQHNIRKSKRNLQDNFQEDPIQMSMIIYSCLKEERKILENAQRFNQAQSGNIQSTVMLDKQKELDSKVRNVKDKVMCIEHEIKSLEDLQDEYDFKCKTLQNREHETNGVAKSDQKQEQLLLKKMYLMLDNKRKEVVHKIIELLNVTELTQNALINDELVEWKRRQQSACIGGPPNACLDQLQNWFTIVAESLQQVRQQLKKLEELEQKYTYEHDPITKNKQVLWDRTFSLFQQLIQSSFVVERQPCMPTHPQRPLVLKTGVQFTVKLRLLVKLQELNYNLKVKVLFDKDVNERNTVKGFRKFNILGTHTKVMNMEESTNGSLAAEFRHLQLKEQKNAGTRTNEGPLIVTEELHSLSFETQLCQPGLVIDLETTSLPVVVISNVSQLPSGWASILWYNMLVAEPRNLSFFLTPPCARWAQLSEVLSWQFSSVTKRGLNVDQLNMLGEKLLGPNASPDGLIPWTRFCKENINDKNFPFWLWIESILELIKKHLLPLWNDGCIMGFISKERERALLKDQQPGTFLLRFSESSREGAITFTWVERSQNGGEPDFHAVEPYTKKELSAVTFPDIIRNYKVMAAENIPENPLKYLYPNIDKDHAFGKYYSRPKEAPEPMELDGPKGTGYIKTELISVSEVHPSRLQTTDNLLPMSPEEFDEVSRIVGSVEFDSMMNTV
The assay is described as follows: Inhibition of STAT1 phosphorylation in HEL cells at 1 uM incubated for 24 hrs by Western blotting analysis. The class given is cell-based. On the technique in general: A western blot detects proteins with antibodies after separation by electrophoresis.

For assay [2], the target named is Signal transducer and activator of transcription 3 (Homo sapiens) (UniProt P40763). Put plainly: Inhibition of STAT3 phosphorylation in HEL cells at 1 uM incubated for 24 hrs by Western blotting analysis. It counts as cell-based.
Assay [3] deals with T1, Signal transducer and activator of transcription 1-alpha/beta (Homo sapiens). The assay is described as follows: Inhibition of STAT1 phosphorylation in HEL cells at 1 uM pretreated with momelotinib followed by compound addition and measured after 24 hrs by Western blotting analysis. The class given is cell-based.
The target of assay [4] is Signal transducer and activator of transcription 3 (Homo sapiens) (UniProt P40763). The assay is described as follows: Inhibition of STAT3 phosphorylation in HEL cells at 1 uM pretreated with momelotinib followed by compound addition and measured after 24 hrs by Western blotting analysis. The class given is cell-based.
Assay [5] deals with T1, Signal transducer and activator of transcription 1-alpha/beta (Homo sapiens). Put plainly: Inhibition of STAT1 phosphorylation in HEL cells at 1 uM pretreated with MG132 followed by compound addition and measured after 24 hrs by Western blotting analysis. It counts as cell-based.
The target of assay [6] is Signal transducer and activator of transcription 3 (Homo sapiens) (UniProt P40763). The assay is described as follows: Inhibition of STAT3 phosphorylation in HEL cells at 1 uM pretreated with MG132 followed by compound addition and measured after 24 hrs by Western blotting analysis. The class given is cell-based.

Signal transducer and activator of transcription 3 (Homo sapiens), sequence (P40763 whole entry): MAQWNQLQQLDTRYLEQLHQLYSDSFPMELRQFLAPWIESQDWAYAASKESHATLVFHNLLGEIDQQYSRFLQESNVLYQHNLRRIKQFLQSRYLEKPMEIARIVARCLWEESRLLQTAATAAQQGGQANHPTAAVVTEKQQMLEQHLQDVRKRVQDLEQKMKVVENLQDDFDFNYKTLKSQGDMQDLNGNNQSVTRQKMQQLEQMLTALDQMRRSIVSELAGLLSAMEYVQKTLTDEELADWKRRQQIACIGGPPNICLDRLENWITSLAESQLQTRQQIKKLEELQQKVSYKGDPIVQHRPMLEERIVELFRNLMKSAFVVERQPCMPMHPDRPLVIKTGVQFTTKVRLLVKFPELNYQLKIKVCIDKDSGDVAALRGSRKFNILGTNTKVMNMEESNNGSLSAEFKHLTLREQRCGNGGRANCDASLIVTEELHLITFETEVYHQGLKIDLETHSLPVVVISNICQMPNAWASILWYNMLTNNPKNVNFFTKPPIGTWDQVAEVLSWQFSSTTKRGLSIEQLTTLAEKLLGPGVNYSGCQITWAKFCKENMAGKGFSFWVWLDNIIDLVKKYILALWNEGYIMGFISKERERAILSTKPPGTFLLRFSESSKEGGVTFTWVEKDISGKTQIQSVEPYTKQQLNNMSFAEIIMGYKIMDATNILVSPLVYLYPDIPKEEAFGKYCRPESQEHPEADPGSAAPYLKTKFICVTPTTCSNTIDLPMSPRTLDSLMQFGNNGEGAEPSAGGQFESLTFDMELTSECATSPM

Regarding `N#CCNC(=O)c1ccc(-c2ccnc(Nc3ccc(N4CCC(C(=O)NCCCCC#Cc5cccc6c5C(=O)N(C5CCC(=O)NC5=O)C6=O)CC4)cc3)n2)cc1` (stereo not given), the IC50 came out at 1.3 µM in the assay on HEL, 6.1 µM in the assay with K562 and 10.5 µM with THP-1. Moreover, the inhibition entry in assay [1] and in assay [2] was “Active” each time. For the same compound, the inhibition result in assay [3], in [4], in assay [5] and in assay [6] was “inactive” throughout.
In the case of `N#CCNC(=O)c1ccc(-c2ccnc(Nc3ccc(N4CCC(C(=O)NCCCC#Cc5cccc6c5C(=O)N(C5CCC(=O)NC5=O)C6=O)CC4)cc3)n2)cc1` (stereo not given), the values for the concentration for half-maximal inhibition (IC50) in the assay on HEL, in the assay with K562 and in the assay on THP-1 were 37.1 µM, 45.1 µM and greater than 50 µM, respectively.
Consider `N#CCNC(=O)c1ccc(-c2ccnc(Nc3ccc(N4CCC(C(=O)NCCCCCC#Cc5cccc6c5C(=O)N(C5CCC(=O)NC5=O)C6=O)CC4)cc3)n2)cc1` (stereo not given), for which the half-maximal inhibitory concentration (IC50) with HEL, in the assay on K562 and with THP-1 was greater than 50 µM each time.

The values are drawn from ChEMBL document CHEMBL5576072, “Discovery of a potent and selective JAK1-targeting PROTAC degrader with anti-tumor activities” (Bioorg Med Chem Lett, 2024).
